Results reported in the Kinase Knowledgebase extract (Sharma et al. 2016).

Target: PIK3CG (human) (UniProt P48736)
Assay: Assessment of PIK3CG Kinase Activity

PIK3CG (human), sequence (P48736 whole entry, looked up): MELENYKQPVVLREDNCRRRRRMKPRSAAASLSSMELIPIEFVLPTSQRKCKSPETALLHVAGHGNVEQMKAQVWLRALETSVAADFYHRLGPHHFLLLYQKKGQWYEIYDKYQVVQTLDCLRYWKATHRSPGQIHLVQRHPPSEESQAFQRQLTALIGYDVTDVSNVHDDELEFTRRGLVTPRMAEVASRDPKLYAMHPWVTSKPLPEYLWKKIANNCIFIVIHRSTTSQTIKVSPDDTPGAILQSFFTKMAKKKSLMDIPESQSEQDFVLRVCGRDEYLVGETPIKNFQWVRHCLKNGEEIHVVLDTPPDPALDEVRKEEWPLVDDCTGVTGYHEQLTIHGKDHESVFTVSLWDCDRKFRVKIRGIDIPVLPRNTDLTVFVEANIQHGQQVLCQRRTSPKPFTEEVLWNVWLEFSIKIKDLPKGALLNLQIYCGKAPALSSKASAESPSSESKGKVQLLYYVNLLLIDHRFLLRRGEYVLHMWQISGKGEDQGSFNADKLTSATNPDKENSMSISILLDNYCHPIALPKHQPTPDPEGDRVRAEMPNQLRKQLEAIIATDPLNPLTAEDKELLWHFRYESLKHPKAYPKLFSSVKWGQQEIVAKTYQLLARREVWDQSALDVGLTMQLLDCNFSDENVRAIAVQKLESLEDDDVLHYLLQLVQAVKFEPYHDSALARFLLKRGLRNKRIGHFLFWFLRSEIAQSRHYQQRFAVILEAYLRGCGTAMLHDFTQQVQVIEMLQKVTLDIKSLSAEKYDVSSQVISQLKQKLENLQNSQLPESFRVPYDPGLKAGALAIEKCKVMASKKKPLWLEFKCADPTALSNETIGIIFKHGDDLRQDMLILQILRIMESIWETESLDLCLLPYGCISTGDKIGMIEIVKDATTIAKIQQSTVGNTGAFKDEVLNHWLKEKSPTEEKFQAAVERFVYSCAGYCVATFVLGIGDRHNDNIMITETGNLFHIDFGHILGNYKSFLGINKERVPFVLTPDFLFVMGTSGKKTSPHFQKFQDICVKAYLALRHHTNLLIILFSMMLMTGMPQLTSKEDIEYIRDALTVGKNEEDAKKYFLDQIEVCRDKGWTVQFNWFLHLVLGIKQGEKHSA

Row | IC50 [µM] | SMILES
1 | < 0.8 | O=C(Nc1nc2c(s1)-c1c(c(-c3ccccc3)nn1-c1ccccc1Cl)CC2)NC1CCS(=O)(=O)C1 (stereo unspecified)
2 | < 0.8 | O=C(Nc1nc2c(s1)-c1c(c(-c3ccccc3)nn1-c1ccccc1Cl)CC2)NC1CCN(S(=O)(=O)c2ccccc2)CC1
3 | < 0.8 | CN(C)C(=O)CCNC(=O)Nc1nc2c(s1)-c1c(c(C3CC3)nn1-c1ccccc1Cl)CC2
4 | < 0.8 | O=C(NCCCC(=O)N1CCOCC1)Nc1nc2c(s1)-c1c(c(-c3ccccc3)nn1-c1ccccc1Cl)CC2
5 | < 0.8 | NC(=O)Nc1nc2c(s1)-c1c(c(-c3cccnc3)nn1-c1ccc(S(N)(=O)=O)cc1Cl)CC2
6 | < 0.8 | CN(C)CCNC(=O)Nc1nc2c(s1)-c1c(c(-c3cncnc3)nn1-c1ccccc1F)CC2
7 | < 0.8 | CCc1cnc(CCNC(=O)Nc2nc3c(s2)-c2c(c(Nc4ccccn4)nn2-c2ccccc2)CC3)o1
8 | < 0.8 | O=C1CC[C@H](NC(=O)Nc2nc3c(s2)-c2c(c(-c4cccnc4)nn2-c2ccccc2Cl)CC3)CN1
9 | < 0.8 | CC(C)(C)OC(=O)N1CC[C@@H](CNC(=O)Nc2nc3c(s2)-c2c(c(-c4cncnc4)nn2-c2ccccc2Cl)CC3)C1
10 | < 0.8 | CC(=O)Nc1ccc(S(=O)(=O)NCCNC(=O)Nc2nc3c(s2)-c2c(c(-c4ccccc4)nn2-c2ccccc2Cl)CC3)cc1
11 | < 0.8 | CN(C)S(=O)(=O)c1ccccc1CNC(=O)Nc1nc2c(s1)-c1c(c(-c3ccccc3)nn1-c1ccccc1Cl)CC2
12 | < 0.8 | CC(C)NC(=O)Nc1nc2c(s1)-c1c(c(-c3cccnc3)nn1-c1ccccc1Cl)CC2
13 | < 0.8 | CC(=O)NC1CCN(C(=O)Nc2nc3c(s2)-c2c(c(-c4cccnc4)nn2-c2ccccc2Cl)CC3)C1 (stereo unspecified)
14 | < 0.8 | CC(C)(C)CC(=O)N1CCC[C@@H]1CNC(=O)Nc1nc2c(s1)-c1c(c(-c3cncnc3)nn1-c1ccccc1Cl)CC2
15 | < 0.8 | COC(=O)N1CCC[C@@H]1CNC(=O)Nc1nc2c(s1)-c1c(c(-c3cncnc3)nn1-c1ccccc1Cl)CC2
16 | < 0.8 | O=C(NC[C@H]1CCCN1C(=O)Cc1ccccc1)Nc1nc2c(s1)-c1c(c(-c3cncnc3)nn1-c1ccccc1Cl)CC2
17 | < 0.8 | O=C(NCCCN1CCOCC1)Nc1nc2c(s1)-c1c(c(-c3cncnc3)nn1-c1ccccc1F)CC2
18 | < 0.8 | Cn1cc(CNC(=O)Nc2nc3c(s2)-c2c(c(-c4cccnc4)nn2-c2ccccc2Cl)CC3)cn1
19 | < 0.8 | CC(C)COC(=O)N1CCC[C@@H]1CNC(=O)Nc1nc2c(s1)-c1c(c(-c3cncnc3)nn1-c1ccccc1Cl)CC2
20 | < 0.8 | CN1CCC(n2nc(-c3cccnc3)c3c2-c2sc(NC(=O)NCc4cccc(C(N)=O)c4)nc2CC3)CC1
21 | < 0.8 | O=C(NCCCn1ccnc1)Nc1nc2c(s1)-c1c(c(-c3cncnc3)nn1-c1ccccc1F)CC2

Row | IC50 [µM] | SMILES
22 | < 0.8 | CCc1cnc(CCNC(=O)Nc2nc3c(s2)-c2c(c(-c4ccccc4)nn2-c2ccccc2Cl)CC3)o1
23 | < 0.8 | CC(C)c1noc(CCNC(=O)Nc2nc3c(s2)-c2c(c(-c4cccnc4)nn2-c2ccccc2Cl)CC3)n1
24 | < 0.8 | CN1CCC(n2nc(-c3cccnc3)c3c2-c2sc(NC(=O)NCC(=O)N(C)C)nc2CC3)CC1
25 | < 0.8 | O=C(NCCc1cccnc1)Nc1nc2c(s1)-c1c(c(-c3cccnc3)nn1-c1ccccc1Cl)CC2
26 | < 0.8 | O=C(NC[C@H]1CCCN1C(=O)N1CCCC1)Nc1nc2c(s1)-c1c(c(-c3cncnc3)nn1-c1ccccc1Cl)CC2
27 | < 0.8 | CN(C)CCNC(=O)Nc1nc2c(s1)-c1c(c(-c3cccnc3)nn1-c1ccccc1Cl)CC2
28 | < 0.8 | CN(C)c1cccc(CNC(=O)Nc2nc3c(s2)-c2c(c(C4CC4)nn2-c2ccccc2Cl)CC3)c1
29 | < 0.8 | CN[C@@H](C)C(=O)N1CC[C@H](CNC(=O)Nc2nc3c(s2)-c2c(c(-c4cncnc4)nn2-c2ccccc2Cl)CC3)C1
30 | < 0.8 | CCc1cnc(CCNC(=O)Nc2nc3c(s2)-c2c(c(-c4cccnc4)nn2-c2ccccc2Cl)CC3)o1
31 | < 0.8 | CC(C)c1cnc(CCNC(=O)Nc2nc3c(s2)-c2c(c(C4CC4)nn2-c2ccccc2Cl)CC3)o1
32 | < 0.8 | CNC(=O)c1cccc(CNC(=O)Nc2nc3c(s2)-c2c(c(-c4cccnc4)nn2C2CCN(C)CC2)CC3)c1
33 | < 0.8 | O=C(Nc1nc2c(s1)-c1c(c(-c3cccnc3)nn1-c1ccccc1Cl)CC2)N1CCC(CN2CCc3ccccc3C2=O)C1 (stereo unspecified)
34 | < 0.8 | CC(=O)Nc1cccc(CNC(=O)Nc2nc3c(s2)-c2c(c(-c4cccnc4)nn2-c2ccccc2Cl)CC3)c1
35 | < 0.8 | CC(C)(C)OC(=O)N1CCC[C@@H]1CNC(=O)Nc1nc2c(s1)-c1c(c(-c3ccccc3)nn1-c1ccccc1Cl)CC2
36 | < 0.8 | CCc1csc(CCNC(=O)Nc2nc3c(s2)-c2c(c(C4CC4)nn2-c2ccccc2Cl)CC3)n1
37 | < 0.8 | NCCNC(=O)Nc1nc2c(s1)-c1c(c(-c3ccccc3)nn1-c1ccccc1Cl)CC2
38 | < 0.8 | CCOC(=O)N1CCC[C@@H]1CNC(=O)Nc1nc2c(s1)-c1c(c(-c3cncnc3)nn1-c1ccccc1Cl)CC2
39 | < 0.8 | O=C(NCCCN1CCNC1=O)Nc1nc2c(s1)-c1c(c(-c3cccnc3)nn1-c1ccccc1Cl)CC2
40 | < 0.8 | CC(C)(C)OC(=O)N1CCC[C@@H]1CNC(=O)Nc1nc2c(s1)-c1c(c(-c3ccccc3)nn1-c1ccccc1F)CC2
41 | < 0.8 | CC(C)(C)OC(=O)NC1CCN(C(=O)Nc2nc3c(s2)-c2c(c(-c4cccnc4)nn2-c2ccccc2Cl)CC3)C1 (stereo unspecified)
